Holding throughout (type): functional
Assay [1] deals with Neisseria meningitidis. The experiment in a line: Antimicrobial activity against fluoroquinolone-susceptible Neisseria meningitidis by disk diffusion method. The note with it: for MIC: Neisseria meningitidis. On the technique in general: Agar diffusion results depend on both activity and mobility in agar.
For assay [2], the system named is Neisseria meningitidis. The experiment in a line: Antimicrobial activity against fluoroquinolone-intermediate Neisseria meningitidis by disk diffusion method.
Assay [3] concerns Neisseria meningitidis. The assay is described as follows: Antimicrobial activity against fluoroquinolone-resistant Neisseria meningitidis expressing gyrA mutant by disk diffusion method.
The subject of assay [4] is Neisseria meningitidis. The assay is described as follows: Antimicrobial activity against fluoroquinolone-resistant Neisseria meningitidis expressing gyrA mutant at 30 ug by disk diffusion method. The note with it: read-out: IZ.
Assay [5] concerns Neisseria meningitidis. The assay is described as follows: Antimicrobial activity against fluoroquinolone-susceptible Neisseria meningitidis at 30 ug by disk diffusion method. The note with it: read-out: IZ.

≈ marks a conversion by molar mass, not a printed value.

The term MIC denotes the lowest concentration that inhibits growth of the organism. A low value points to inhibition by little substance. As to `O=C(O)c1cn(C2CC2)c2cc(N3CCNCC3)c(F)cc2c1=O` [CIPROFLOXACIN], the “inhibition zone (IZ)” value with Neisseria meningitidis [1] is 34 mm; in the assay with Neisseria meningitidis [2] it was 35 mm; in the assay with Neisseria meningitidis [3], 29 mm. For the same compound, the MIC was at most 0.03 µg/mL in the assay with Neisseria meningitidis [1], 0.06 µg/mL (≈ 0.181 µM) against Neisseria meningitidis [2] (Neisseria meningitidis) and at least 0.12 µg/mL in the assay on Neisseria meningitidis [3] (Neisseria meningitidis).

For the compound `CCn1cc(C(=O)O)c(=O)c2ccc(C)nc21` [NALIDIXIC ACID], in the assay with Neisseria meningitidis [1], it took 0.25 µg/mL (≈ 1.08 µM) to inhibit growth (MIC). The zone of inhibition at 30 µg/disc in the assay on Neisseria meningitidis [4] was below 15 mm; in the assay with Neisseria meningitidis [5] it was 28 mm.
